# Where “and” joins values, the source holds several entries; their conditions need not be identical. Equal entries are not always repeated. Where two headings read alike, the source gives them in different places.
# What was measured:
# Type in all cases: cell-based, human
# [1] = tested on: 22Rv1-SamR cells; assay: IncuCyte confluency growth, 22Rv1-SamR; conditions: 22Rv1-SamR; for % Confluency: 1.25µM Samuraciclib
# Procedure: (§1) To determine the IC50 of drug treatments on growth, cells were seeded in 96-well culture plates. Two days after seeding, the cells were treated with increasing concentrations of drugs and incubated for 4 days. Cell number was determined using the SRB assay (Skehan et al, [1990]), and IC50 values were calculated using non-linear regression curve fitting in GraphPad Prism v10. For all other growth experiments, cells were seeded into 96-well plates, and appropriate drugs were added 2 days after seeding. Cells were then incubated in an IncuCyte Zoom live-cell imager, with cell confluency measured every 6 h. Cell doubling times were determined by non-linear curve fitting (exponential growth equation) in GraphPad Prism v10.
# [2] = tested on: MCF7-CDK7-D97N cells; assay: Growth assay (SRB), MCF7 CDK7-D97N knock-in; conditions: 4 days; for % Growth: MCF7 CDK7 D99N, biological reps
# Procedure: as §1
# Alt-R^TM S.p. Cas9 nuclease V3, Alt-R CRISPR-Cas9 crRNA, TracrRNA and the donor templates were obtained from Integrated DNA Technologies. […] Cells were treated with 0.7 µM of Alt-R HDR Enhancer V2 to improve HRD efficiency. Sequences of the CRISPRs in the crRNA and the donor templates are shown in the Reagents and tools table. Donor templates were designed to include non-coding substitutions to aid genome DNA PCR for identifying knock-in events and to facilitate cloning; these substitutions are noted in the Reagents and tools table.
# [3] = tested on: 22Rv1 homozygous CDK7-D97N CL3 cells; assay: IncuCyte confluency growth, 22Rv1 homozygous CDK7-D97N CL3; conditions: for % Confluency: 1.25µM Samuraciclib
# Procedure: as §1
# [4] = tested on: 22Rv1 cells; assay: IncuCyte confluency growth, 22Rv1; conditions: 1.25µM Samuraciclib
# Procedure: as §1
# [5] = tested on: 22Rv1 cells; assay: Growth assay (SRB), 22Rv1; conditions: for IC50: read-out: IC50, growth inhibition
# Procedure: as §1
smiles,measurement,setting,value
CC(C)c1cnn2c(NCc3ccccc3)cc(NC[C@H]3CCNC[C@@H]3O)nc12 [Samuraciclib],% Confluency,[1]; 0 hours,9.95% and 14.33% and 14.57%
same,% Confluency,[1]; 6 hours,10.40% and 16.13% and 16.29%
same,% Confluency,[1]; 12 hours,11.65% and 17.66% and 17.87%
same,% Confluency,[1]; 18 hours,12.68% and 19.79% and 20.05%
same,% Confluency,[1]; 24 hours,14.19% and 22.35% and 22.55%
same,% Confluency,[1]; 30 hours,15.61% and 24.60% and 24.68%
same,% Confluency,[1]; 36 hours,16.94% and 26.20% and 26.26%
same,% Confluency,[1]; 42 hours,17.81% and 27.46% and 27.71%
same,% Confluency,[1]; 48 hours,18.38% and 28.92% and 29.43%
same,% Confluency,[1]; 54 hours,19.67% and 30.91% and 31.32%
same,% Confluency,[1]; 60 hours,20.82% and 32.87% and 33.32%
same,% Confluency,[1]; 66 hours,22.29% and 34.64% and 35.33%
same,% Confluency,[1]; 72 hours,23.74% and 36.43% and 37.12%
same,% Confluency,[1]; 78 hours,25.50% and 38.39% and 39.15%
same,% Confluency,[1]; 84 hours,27.27% and 40.40% and 41.13%
same,% Confluency,[1]; 90 hours,29.10% and 42.68% and 43.52%
same,% Confluency,[1]; 96 hours,31.07% and 45.25% and 45.93%
same,% Confluency,[1]; 114 hours,38.05% and 53.22% and 54.00%
same,% Confluency,[1]; 120 hours,40.50% and 56.05% and 56.55%
same,% Confluency,[1]; 126 hours,43.34% and 58.82% and 59.09%
same,% Confluency,[1]; 132 hours,46.08% and 61.31% and 61.57%
same,% Confluency,[1]; 138 hours,48.67% and 63.52% and 63.85%
same,% Confluency,[1]; 144 hours,51.40% and 65.10% and 65.55%
same,Growth inhibition over time,"[1]; IncuCyte confluency, samuraciclib at 1.35 µM",considerably less growth inhibited
same,IC50,"[2]; Homo sapiens, 96 h, MCF7-CDK7-D97N, SRB",549 nM
same,% Growth,[2]; Log10 Conc. (nM) 0.09,93.84% and 106.04% and 113.40% and 105.52%
same,% Growth,[2]; Log10 Conc. (nM) 0.69,86.29% and 99.08% and 100.28% and 99.62%
same,% Growth,[2]; Log10 Conc. (nM) 1.29,88.99% and 86.43% and 96.17% and 90.33%
same,% Growth,[2]; Log10 Conc. (nM) 1.89,85.74% and 86.71% and 90.03% and 87.55%
same,% Growth,[2]; Log10 Conc. (nM) 2.49,75.98% and 70.58% and 83.78% and 70.72%
same,% Growth,[2]; Log10 Conc. (nM) -0.52,91.39% and 95.24% and 109.01% and 102.90%
same,% Confluency,"[3]; CDK7D97N CL3, 0 hours",11.15% and 16.69% and 15.87%
same,% Confluency,"[3]; CDK7D97N CL3, 6 hours",12.67% and 19.64% and 18.89%
same,% Confluency,"[3]; CDK7D97N CL3, 12 hours",14.00% and 21.38% and 20.49%
same,% Confluency,"[3]; CDK7D97N CL3, 18 hours",14.90% and 23.74% and 22.71%
same,% Confluency,"[3]; CDK7D97N CL3, 24 hours",16.23% and 26.69% and 25.53%
same,% Confluency,"[3]; CDK7D97N CL3, 30 hours",17.78% and 29.17% and 27.88%
same,% Confluency,"[3]; CDK7D97N CL3, 36 hours",18.86% and 30.89% and 29.55%
same,% Confluency,"[3]; CDK7D97N CL3, 42 hours",19.43% and 32.04% and 30.87%
same,% Confluency,"[3]; CDK7D97N CL3, 48 hours",20.15% and 33.30% and 32.45%
same,% Confluency,"[3]; CDK7D97N CL3, 54 hours",21.35% and 35.23% and 34.41%
same,% Confluency,"[3]; CDK7D97N CL3, 60 hours",22.64% and 37.22% and 36.36%
same,% Confluency,"[3]; CDK7D97N CL3, 66 hours",23.89% and 39.05% and 38.37%
same,% Confluency,"[3]; CDK7D97N CL3, 72 hours",25.25% and 40.82% and 40.29%
same,% Confluency,"[3]; CDK7D97N CL3, 78 hours",26.70% and 42.56% and 42.42%
same,% Confluency,"[3]; CDK7D97N CL3, 84 hours",28.04% and 44.37% and 44.58%
same,% Confluency,"[3]; CDK7D97N CL3, 90 hours",29.44% and 46.55%
same,% Confluency,"[3]; CDK7D97N CL3, 96 hours",30.80% and 48.80% and 48.76%
same,% Confluency,"[3]; CDK7D97N CL3, 114 hours",35.00% and 54.89% and 54.85%
same,% Confluency,"[3]; CDK7D97N CL3, 120 hours",36.47% and 56.68%
same,% Confluency,"[3]; CDK7D97N CL3, 126 hours",38.04% and 58.51% and 58.53%
same,% Confluency,"[3]; CDK7D97N CL3, 132 hours",39.56% and 60.46% and 60.48%
same,% Confluency,"[3]; CDK7D97N CL3, 138 hours",41.00% and 62.13% and 62.12%
same,% Confluency,"[3]; CDK7D97N CL3, 144 hours",42.51% and 63.49% and 63.85%
same,Growth inhibition over time,"[3]; 22Rv1 homozygous CDK7-D97N clone, IncuCyte confluency, samuraciclib at 1.35 µM",considerably less growth inhibited
same,% Confluency,"[4]; 22Rv1, 0 hours",11.09% and 19.39% and 18.69%
same,% Confluency,"[4]; 22Rv1, 6 hours",11.39% and 20.88% and 20.07%
same,% Confluency,"[4]; 22Rv1, 12 hours",11.53% and 22.21% and 21.45%
same,% Confluency,"[4]; 22Rv1, 18 hours",12.38% and 23.96% and 23.27%
same,% Confluency,"[4]; 22Rv1, 24 hours",12.59% and 24.76% and 24.14%
same,% Confluency,"[4]; 22Rv1, 72 hours",18.17% and 36.04% and 35.50%
same,% Confluency,"[4]; 22Rv1, 78 hours",18.89% and 36.95% and 36.29%
same,% Confluency,"[4]; 22Rv1, 84 hours",19.31% and 37.65% and 37.05%
same,% Confluency,"[4]; 22Rv1, 90 hours",19.76% and 38.15% and 37.44%
same,% Confluency,"[4]; 22Rv1, 96 hours",20.21% and 38.65% and 37.90%
same,% Confluency,"[4]; 22Rv1, 114 hours",21.28% and 39.48% and 38.59%
same,% Confluency,"[4]; 22Rv1, 120 hours",21.53% and 39.86% and 38.66%
same,% Confluency,"[4]; 22Rv1, 126 hours",21.77% and 39.89% and 38.66%
same,% Confluency,"[4]; 22Rv1, 132 hours",21.94% and 40.00% and 38.90%
same,% Confluency,"[4]; 22Rv1, 138 hours",22.18% and 40.24% and 38.99%
same,% Confluency,"[4]; 22Rv1, 144 hours",22.26% and 40.34% and 39.26%
same,% Growth,"[5]; 22Rv1, Log10 Conc. (nM) 0.09",82.57% and 100.57%
same,% Growth,"[5]; 22Rv1, Log10 Conc. (nM) 0.69",67.33% and 92.29%
same,% Growth,"[5]; 22Rv1, Log10 Conc. (nM) 1.29",62.76% and 77.49%
same,% Growth,"[5]; 22Rv1, Log10 Conc. (nM) 1.89",23.35% and 33.47%
same,% Growth,"[5]; 22Rv1, Log10 Conc. (nM) 2.49",12.07% and 16.59%
same,% Growth,"[5]; 22Rv1, Log10 Conc. (nM) 3.10",-1.00% and 4.60%
same,% Growth,"[5]; 22Rv1, Log10 Conc. (nM) 3.70",-9.57% and -5.93%
same,% Growth,"[5]; 22Rv1, Log10 Conc. (nM) 4.30",-12.92% and -8.82%
same,% Growth,"[5]; 22Rv1, Log10 Conc. (nM) -0.52",95.09% and 93.80%
same,IC50,"[5]; 22Rv1, 4 days, SRB",107 nM
same,% Growth,"[5]; 22Rv1, Log10 Conc. (nM) 0.09, 4 days, biological reps",98.86% and 90.50% and 99.61%
same,% Growth,"[5]; 22Rv1, Log10 Conc. (nM) 0.69, 4 days, biological reps",94.70% and 88.77% and 91.92%
same,% Growth,"[5]; 22Rv1, Log10 Conc. (nM) 1.29, 4 days, biological reps",87.71% and 80.91% and 85.47%
same,% Growth,"[5]; 22Rv1, Log10 Conc. (nM) 1.89, 4 days, biological reps",47.61% and 40.53% and 48.68%
same,% Growth,"[5]; 22Rv1, Log10 Conc. (nM) 2.49, 4 days, biological reps",31.58% and 24.12% and 25.60%
same,% Growth,"[5]; 22Rv1, Log10 Conc. (nM) 3.10, 4 days, biological reps",18.12% and 12.29% and 10.95%
same,% Growth,"[5]; 22Rv1, Log10 Conc. (nM) -0.52, 4 days, biological reps",95.62% and 91.39% and 96.41%
same,IC50,"[5]; Homo sapiens, 22Rv1, 22Rv1, Figure R1 experiment",71.7 nM
same,IC50,"[5]; Homo sapiens, 22Rv1, 96 h, 22Rv1, 4 days, SRB",107 nM
